This is an account of results in ChEMBL document CHEMBL3044974, “Design, synthesis, insecticidal activity and structure-activity relationship of 3,3-dichloro-2-propenyloxy-containing phthalic acid diamide structures” (2012).

By mortality is commonly meant the percentage killed.

Common to all, as to assay type: functional
Assay [1] concerns Plutella xylostella. As to the kind of experiment: Insecticidal activity against Plutella xylostella (diamondback moth) third-instar larvae reared on 100 ug/mL compound pre-treated cabbage leaf disks assessed as insect mortality measured after 3 days post compound treatment by leaf dipping method.
In assay [2] the test system is Plutella xylostella. As to the kind of experiment: Insecticidal activity against Plutella xylostella (diamondback moth) third-instar larvae reared on 100 ug/mL compound pre-treated cabbage leaf disks assessed as insect mortality measured after 2 days post compound treatment by leaf dipping method.
Assay [3] relates to Plutella xylostella. As to the kind of experiment: Insecticidal activity against Plutella xylostella (diamondback moth) third-instar larvae reared on 10 ug/mL compound pre-treated cabbage leaf disks assessed as insect mortality measured after 3 days post compound treatment by leaf dipping method.
The test system of assay [4] is Plutella xylostella. The assay can be described thus: Insecticidal activity against Plutella xylostella (diamondback moth) third-instar larvae reared on 10 ug/mL compound pre-treated cabbage leaf disks assessed as insect mortality measured after 2 days post compound treatment by leaf dipping method.

`CC(C)(CS(C)(=O)=O)NC(=O)c1c(I)cccc1C(=O)Nc1ccc(OCC=C(Cl)Cl)cc1`: the mortality in assay [1] is 60%; in assay [2] it was 15%.
Take `CC(C)(CS(C)(=O)=O)NC(=O)c1c(I)cccc1C(=O)Nc1ccc(OCC=C(Cl)Cl)cc1Cl`: the mortality in assay [3] was determined as 20%; in assay [4], 0%; in assay [1] it was 100%; in assay [2], 75%.
Take `CC(C)(CS(C)(=O)=O)NC(=O)c1c(I)cccc1C(=O)Nc1ccc(OCC=C(Cl)Cl)cc1F`: the mortality was determined as 90% in assay [1] and 55% in assay [2].
Regarding `CC(C)(CS(C)(=O)=O)NC(=O)c1c(I)cccc1C(=O)Nc1ccc(OCC=C(Cl)Cl)cc1C(F)(F)F`, the figures for the mortality in assay [1] and in assay [2] were 69% and 25%, respectively.
As to `Cc1cc(OCC=C(Cl)Cl)ccc1NC(=O)c1cccc(I)c1C(=O)NC(C)(C)CS(C)(=O)=O`, the figures for the mortality in assay [1] and in assay [2] were 81% and 76%, respectively.
As to `CC(C)(CS(C)(=O)=O)NC(=O)c1c(I)cccc1C(=O)Nc1ccc(OCC=C(Cl)Cl)c(Cl)c1`, the mortality is listed as 48% in assay [1] and 24% in assay [2].
For the molecule `CC(C)(CS(C)(=O)=O)NC(=O)c1c(I)cccc1C(=O)Nc1ccc(OCC=C(Cl)Cl)c(C(F)(F)F)c1`, the mortality in assay [1] and in assay [2] was 0% in each case.
As for `Cc1cc(NC(=O)c2cccc(I)c2C(=O)NC(C)(C)CS(C)(=O)=O)ccc1OCC=C(Cl)Cl`, the mortality in assay [1] came to 19%; in assay [2], 8%.
As for `CSCC(C)(C)NC(=O)c1c(I)cccc1C(=O)Nc1ccc(OCC=C(Cl)Cl)c(C(F)(F)F)c1`, the mortality in assay [1] and in assay [2] was 0% each time.
Turning to `CSCC(C)(C)NC(=O)c1c(I)cccc1C(=O)Nc1ccc(OCC=C(Cl)Cl)c(C)c1`, the values for the mortality in assay [1] and in assay [2] were 10% and 0%, respectively.
Consider `COCC(C)(C)NC(=O)c1c(I)cccc1C(=O)Nc1ccc(OCC=C(Cl)Cl)cc1Cl`, for which the mortality is recorded as 63% in assay [1] and 54% in assay [2].
With `COCC(C)(C)NC(=O)c1c(I)cccc1C(=O)Nc1ccc(OCC=C(Cl)Cl)cc1F`, the values for the mortality in assay [1] and in assay [2] were 61% and 47%, respectively.
Take `COCC(C)(C)NC(=O)c1c(I)cccc1C(=O)Nc1ccc(OCC=C(Cl)Cl)cc1C(F)(F)F`: the mortality in assay [1] is 44%; in assay [2], 32%.
As to `COCC(C)(C)NC(=O)c1c(I)cccc1C(=O)Nc1ccc(OCC=C(Cl)Cl)cc1C`, the figures for the mortality in assay [1] and in assay [2] were 72% and 47%, respectively.
In the case of `COCC(C)(C)NC(=O)c1c(I)cccc1C(=O)Nc1ccc(OCC=C(Cl)Cl)c(Cl)c1`, the mortality in assay [1] is 61%; in assay [2], 42%.
For the molecule `COCC(C)(C)NC(=O)c1c(I)cccc1C(=O)Nc1ccc(OCC=C(Cl)Cl)c(C(F)(F)F)c1`, the mortality is on record as 44% in assay [1] and 42% in assay [2].
For the molecule `COCC(C)(C)NC(=O)c1c(I)cccc1C(=O)Nc1ccc(OCC=C(Cl)Cl)c(C)c1`, the mortality in assay [1] came out at 70%; in assay [2], 42%.
Consider `CC(C)(C)NC(=O)c1c(I)cccc1C(=O)Nc1ccc(OCC=C(Cl)Cl)cc1`, for which the mortality in assay [1] is given as 78%; in assay [2], 39%.
As for `CC(C)(C)NC(=O)c1c(I)cccc1C(=O)Nc1ccc(OCC=C(Cl)Cl)cc1Cl`, the mortality came to 91% in assay [3], 65% in assay [4], 100% in assay [1] and 90% in assay [2].
As for `CC(C)(C)NC(=O)c1c(I)cccc1C(=O)Nc1ccc(OCC=C(Cl)Cl)cc1F`, the mortality is 0% in assay [3], 0% in assay [4], 100% in assay [1] and 81% in assay [2].
Take `CC(C)(C)NC(=O)c1c(I)cccc1C(=O)Nc1ccc(OCC=C(Cl)Cl)cc1C(F)(F)F`: the mortality in assay [1] is reported as 90%; in assay [2], 65%.
Regarding `Cc1cc(OCC=C(Cl)Cl)ccc1NC(=O)c1cccc(I)c1C(=O)NC(C)(C)C`, the mortality in assay [3] is 58%; in assay [4] it was 32%; in assay [1] it was 100%; in assay [2], 69%.
For `CC(C)(C)NC(=O)c1c(I)cccc1C(=O)Nc1ccc(OCC=C(Cl)Cl)c(Cl)c1`, the mortality is on record as 76% in assay [1] and 57% in assay [2].
Taken in the same sequence, the figures for `CC(C)(C)NC(=O)c1c(I)cccc1C(=O)Nc1ccc(OCC=C(Cl)Cl)c(C(F)(F)F)c1` were 8% and 0%.
As for `Cc1cc(NC(=O)c2cccc(I)c2C(=O)NC(C)(C)C)ccc1OCC=C(Cl)Cl`, the mortality in assay [1] was 25%; in assay [2], 0%.
As for `CSCC(C)(C)NC(=O)c1c(I)cccc1C(=O)Nc1ccc(OCC=C(Cl)Cl)cc1`, the mortality was determined as 45% in assay [1] and 15% in assay [2].
For `CSCC(C)(C)NC(=O)c1c(I)cccc1C(=O)Nc1ccc(OCC=C(Cl)Cl)cc1Cl`, the mortality in assay [3] stood at 43%; in assay [4] it was 0%; in assay [2] it was 100%.
Take `CSCC(C)(C)NC(=O)c1c(I)cccc1C(=O)Nc1ccc(OCC=C(Cl)Cl)cc1F`: the mortality is 0% in assay [3], 0% in assay [4], 100% in assay [1] and 58% in assay [2].
Regarding `CSCC(C)(C)NC(=O)c1c(I)cccc1C(=O)Nc1ccc(OCC=C(Cl)Cl)cc1C(F)(F)F`, the values for the mortality in assay [1] and in assay [2] were 62% and 57%, respectively.
Regarding `CSCC(C)(C)NC(=O)c1c(I)cccc1C(=O)Nc1ccc(OCC=C(Cl)Cl)cc1C`, the mortality in assay [3] was determined as 19%; in assay [4], 10%; in assay [1] it was 95%; in assay [2] it was 90%.
For the molecule `CSCC(C)(C)NC(=O)c1c(I)cccc1C(=O)Nc1ccc(OCC=C(Cl)Cl)c(Cl)c1`, the values for the mortality in assay [1] and in assay [2] were 81% and 38%, respectively.
Turning to `Cc1cc(C(F)(C(F)(F)F)C(F)(F)F)ccc1NC(=O)c1cccc(I)c1C(=O)NC(C)(C)CS(C)(=O)=O` [FLUBENDIAMIDE], the mortality in assay [3] was determined as 100%; in assay [4] it was 67%; in assay [2] it was 100%.
With `FC(F)(F)c1ccc(OCCCOc2c(Cl)cc(OCC=C(Cl)Cl)cc2Cl)nc1` [PYRIDALYL], the mortality is 37% in assay [3], 13% in assay [4] and 100% in assay [2].
